# pIC50: −log10 of the molar value. Active and inactive are the calls of the source. The calls are words filed in the database; no cut-off is given here.
# What was measured:
# Histone deacetylase 1 = Histone deacetylase 1 (Homo sapiens, UniProt Q13547); assay: Inhibition of recombinant HDAC1 (unknown origin) using Boc-Lys(acetyl)-AMC as substrate preincubated for 1 hr followed by substrate addition and measured after 2 hrs by fluorescence based micro plate reader analysis
# Histone deacetylase 3 = Histone deacetylase 3 (Homo sapiens, UniProt O15379); assay: Inhibition of recombinant HDAC3 (unknown origin) using Boc-Lys(acetyl)-AMC as substrate preincubated for 1 hr followed by substrate addition and measured after 2 hrs by fluorescence based micro plate reader analysis
# Chain of Histone deacetylase 3 (O15379 whole entry): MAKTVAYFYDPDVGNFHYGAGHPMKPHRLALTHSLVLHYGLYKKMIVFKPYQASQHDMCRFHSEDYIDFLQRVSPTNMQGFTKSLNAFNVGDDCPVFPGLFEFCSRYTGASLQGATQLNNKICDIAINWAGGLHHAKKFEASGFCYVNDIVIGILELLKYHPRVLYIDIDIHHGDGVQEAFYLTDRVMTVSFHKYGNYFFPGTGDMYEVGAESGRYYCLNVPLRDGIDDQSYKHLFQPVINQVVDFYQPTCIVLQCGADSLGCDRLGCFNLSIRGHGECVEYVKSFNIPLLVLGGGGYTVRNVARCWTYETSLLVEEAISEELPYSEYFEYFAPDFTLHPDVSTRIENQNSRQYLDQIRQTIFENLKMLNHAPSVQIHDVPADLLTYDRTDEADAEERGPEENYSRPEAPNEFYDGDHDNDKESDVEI
# Histone deacetylase 4 = Histone deacetylase 4 (Homo sapiens, UniProt P56524); assay: Inhibition of recombinant HDAC4 (unknown origin) using Boc-Lys(trifluoroacetyl)-AMC as substrate preincubated for 1 hr followed by substrate addition and measured after 2 hrs by fluorescence based micro plate reader analysis
# Chain of Histone deacetylase 4 (P56524 whole entry): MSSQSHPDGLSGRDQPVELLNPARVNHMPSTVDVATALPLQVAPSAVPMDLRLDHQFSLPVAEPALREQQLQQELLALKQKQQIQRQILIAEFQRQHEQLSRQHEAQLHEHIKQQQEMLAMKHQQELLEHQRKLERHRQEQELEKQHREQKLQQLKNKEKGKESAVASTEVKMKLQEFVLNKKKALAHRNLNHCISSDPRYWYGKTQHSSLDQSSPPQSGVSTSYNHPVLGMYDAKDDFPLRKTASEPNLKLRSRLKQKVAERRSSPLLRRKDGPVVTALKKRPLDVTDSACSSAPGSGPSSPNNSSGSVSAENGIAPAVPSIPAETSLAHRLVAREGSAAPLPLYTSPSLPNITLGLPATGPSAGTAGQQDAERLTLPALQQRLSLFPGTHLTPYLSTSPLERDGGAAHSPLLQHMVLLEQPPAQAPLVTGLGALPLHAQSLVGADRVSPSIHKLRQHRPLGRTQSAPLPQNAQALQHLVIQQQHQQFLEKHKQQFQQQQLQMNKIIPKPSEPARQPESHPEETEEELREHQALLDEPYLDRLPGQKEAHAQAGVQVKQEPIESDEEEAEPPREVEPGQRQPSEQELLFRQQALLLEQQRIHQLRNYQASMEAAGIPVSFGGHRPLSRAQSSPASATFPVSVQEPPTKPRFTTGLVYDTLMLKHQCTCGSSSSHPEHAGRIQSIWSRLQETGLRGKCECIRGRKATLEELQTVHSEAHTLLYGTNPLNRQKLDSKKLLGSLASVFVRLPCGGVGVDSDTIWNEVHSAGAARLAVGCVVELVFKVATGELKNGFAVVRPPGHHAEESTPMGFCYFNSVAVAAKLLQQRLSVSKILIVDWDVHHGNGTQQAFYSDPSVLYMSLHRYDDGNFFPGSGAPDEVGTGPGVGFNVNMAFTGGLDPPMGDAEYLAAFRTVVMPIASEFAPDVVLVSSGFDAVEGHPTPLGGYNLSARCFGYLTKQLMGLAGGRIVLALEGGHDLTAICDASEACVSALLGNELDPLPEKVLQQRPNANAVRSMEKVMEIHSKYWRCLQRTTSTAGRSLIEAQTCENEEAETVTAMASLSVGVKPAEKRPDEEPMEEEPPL
# Histone deacetylase 11 = Histone deacetylase 11 (Homo sapiens, UniProt Q96DB2); assay: Inhibition of recombinant HDAC11 (unknown origin) preincubated for 1 hr followed by substrate addition and measured after 2 hrs by fluorescence based micro plate reader analysis
# Chain of Histone deacetylase 11 (Q96DB2 whole entry): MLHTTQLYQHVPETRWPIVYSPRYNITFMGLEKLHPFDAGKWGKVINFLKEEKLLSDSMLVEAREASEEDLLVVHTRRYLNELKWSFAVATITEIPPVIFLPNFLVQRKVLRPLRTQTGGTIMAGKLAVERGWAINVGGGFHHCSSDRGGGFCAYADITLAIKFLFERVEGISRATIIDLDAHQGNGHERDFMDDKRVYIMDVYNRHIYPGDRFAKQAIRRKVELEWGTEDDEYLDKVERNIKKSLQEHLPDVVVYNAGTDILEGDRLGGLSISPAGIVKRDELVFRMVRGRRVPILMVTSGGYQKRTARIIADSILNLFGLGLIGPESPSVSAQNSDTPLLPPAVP
# HCT-116 = assay: cells; format: functional, cell-based; conditions: Homo sapiens, HCT-116, 72 h
# Description: Antiproliferative activity against human HCT-116 cells assessed as inhibition of cell growth incubated for 72 hrs by MTT assay
# 4T1 [1] = assay: cells; format: functional, cell-based; conditions: Mus musculus, 4T1, 72 h
# B16-F10 [2] = assay: Anti-invasive activity in mouse B16-F10 cells assessed as reduction in invasive capacity at 5 to 20 uM incubated for 24 to 48 hrs by crystal violet staining based microscopic analysis; format: functional, cell-based; conditions: dose 5-20 µM, time 24-48 hrs
# [3] = molecular target: T1, Histone deacetylase 3 (Mus musculus) (UniProt O88895); assay: Inhibition of HDAC3 in mouse B16-F10 cells assessed as increase in histone H3 acetylation level at 5 to 20 uM incubated for 24 hrs by Western blot analysis; format: cell-based; conditions: dose 5-20 µM
# T1 sequence (whole entry): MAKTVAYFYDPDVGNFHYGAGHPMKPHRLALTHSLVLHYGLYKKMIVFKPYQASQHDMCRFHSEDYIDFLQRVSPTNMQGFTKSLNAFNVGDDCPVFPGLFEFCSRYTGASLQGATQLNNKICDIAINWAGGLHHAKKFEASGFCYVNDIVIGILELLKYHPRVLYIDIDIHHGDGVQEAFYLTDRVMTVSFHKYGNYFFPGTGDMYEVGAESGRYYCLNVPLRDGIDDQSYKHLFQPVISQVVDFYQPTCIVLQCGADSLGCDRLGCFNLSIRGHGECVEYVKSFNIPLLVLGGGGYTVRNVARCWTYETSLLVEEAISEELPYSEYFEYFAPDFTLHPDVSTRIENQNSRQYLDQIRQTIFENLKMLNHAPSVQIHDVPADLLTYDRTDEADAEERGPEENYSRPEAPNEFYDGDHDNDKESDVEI
# [4] = molecular target: Programmed cell death 1 ligand 1 (Mus musculus) (UniProt Q9EP73); assay: Induction of PD-L1 degradation in mouse B16-F10 cells assessed as decrease in PD-L1 protein level by measuring maximal efficacy at 10 uM incubated for 24 hrs by Western blot analysis relative to control; format: cell-based
# Chain of Programmed cell death 1 ligand 1 (Mus musculus) (Q9EP73 whole entry): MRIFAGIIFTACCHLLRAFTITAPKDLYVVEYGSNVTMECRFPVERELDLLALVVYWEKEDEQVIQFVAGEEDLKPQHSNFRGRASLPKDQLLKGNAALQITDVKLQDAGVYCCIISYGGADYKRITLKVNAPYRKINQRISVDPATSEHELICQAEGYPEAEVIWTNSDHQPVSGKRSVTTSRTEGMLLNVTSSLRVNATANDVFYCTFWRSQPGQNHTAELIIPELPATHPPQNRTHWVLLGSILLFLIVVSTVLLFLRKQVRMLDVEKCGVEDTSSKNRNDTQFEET
# [5] = molecular target: T1, Histone deacetylase 3 (Mus musculus); assay: Inhibition of HDAC3 in mouse B16-F10 cells assessed as increase in acetylated histone H3 level at 5 uM incubated for 24 hrs by DAPI staining based immunofluorescence analysis; format: cell-based
# 4T1 [6] = assay: Induction of DNA damage in mouse 4T1 cells assessed as increase in gamma-H2AX expression at 2 uM incubated for 24 hrs by Western blot analysis; format: functional, cell-based
# B16-F10 [7] = assay: Induction of DNA damage in mouse B16-F10 cells assessed as increase in gamma-H2AX expression at 2 uM incubated for 24 hrs in presence of olaparib by Western blot analysis; format: functional, cell-based
# 4T1 [8] = assay: Induction of DNA damage in mouse 4T1 cells assessed as increase in gamma-H2AX expression at 2 uM incubated for 24 hrs in presence of olaparib by Western blot analysis; format: functional, cell-based
# [9] = MRT (0 to infinity) in male Sprague-Dawley rat at 2 mg/kg, iv measured after 12 hrs by LC-MS/MS analysis; format: ADME, organism-based; conditions: in vivo
# [10] = Clast in male Sprague-Dawley rat at 2 mg/kg, iv measured after 12 hrs by LC-MS/MS analysis; format: ADME, organism-based; conditions: in vivo, read-out: Clast
# [11] = Apparent volume of distribution in male Sprague-Dawley rat at 2 mg/kg, iv measured after 12 hrs by LC-MS/MS analysis; format: ADME, organism-based; conditions: in vivo, read-out: Vz
# [12] = Cmax in male Sprague-Dawley rat at 2 mg/kg, iv measured after 12 hrs by LC-MS/MS analysis; format: ADME, organism-based; conditions: in vivo
# [13] = MRT (0 to t) in male Sprague-Dawley rat at 20 mg/kg, po measured after 12 hrs by LC-MS/MS analysis; format: ADME, organism-based; conditions: in vivo
# [14] = VRT (0 to t) in male Sprague-Dawley rat at 20 mg/kg, po measured after 12 hrs by LC-MS/MS analysis; format: ADME, organism-based; conditions: in vivo
# B16-F10 [15] = assay: Synergistic antitumor activity against mouse B16-F10 cells implanted in male C57BL/6 mouse model assessed as tumor growth inhibition at 50 mg/kg, po co-administered with NP-19 as once daily dosage via gavage for 14 days relative to control; format: functional; conditions: B16-F10, 336 h, time 14 day, read-out: TGI
# Mus musculus [16] = assay: Immunomodulatory activity in male C57BL/6 mouse model implanted with mouse B16-F10 cells assessed as increase in CD3+ CD4+ T cells in tumor at 50 mg/kg, po administered once daily for 14 days by flow cytometric analysis (reference value: 3.1 %); format: functional; conditions: time 14 day
# Mus musculus [17] = assay: Immunomodulatory activity in male C57BL/6 mouse model implanted with mouse B16-F10 cells assessed as increase in CD3+ CD8+ T cells in tumor at 50 mg/kg, po co-administered with NP-19 as once daily dosage via gavage for 14 days by flow cytometric analysis (reference value: 3.2 %); format: functional; conditions: time 14 day
# Mus musculus [18] = assay: Effect on acetylated alpha-tubulin level in male C57BL/6 mouse tumor implanted with mouse B16-F10 cells at 50 mg/kg, po administered once daily via gavage for 14 days by Western blot analysis; format: functional, organism-based; conditions: time 14.0 day
# Mus musculus [19] = assay: In vivo induction of PD-L1 degradation in male C57BL/6 mouse model implanted with mouse B16-F10 cells assessed as decrease in PD-L1 protein expression in tumor at 50 mg/kg, po co-administered with NP-19 as once daily dosage via gavage for 14 days by Western blot analysis; format: functional, organism-based; conditions: time 14.0 day
# Mus musculus [20] = assay: In vivo induction of PD-L1 degradation in male C57BL/6 mouse model implanted with mouse B16-F10 cells assessed as decrease in PD-L1 protein expression in tumor at 50 mg/kg, po administered once daily via gavage for 14 days by DAPI staining based immunofluorescence analysis; format: functional, organism-based; conditions: time 14.0 day
# 4T1 [21] = assay: Antitumor activity against mouse 4T1 cells implanted in female BALB/c mouse model assessed as tumor growth inhibition administrated orally as once daily dose via gavage for 14 days relative to control; format: functional; conditions: route po; time 14 day
# 4T1 [22] = assay: Antitumor activity against mouse 4T1 cells implanted in female BALB/c mouse model assessed as decrease in PAPR1 expression in tumor co-administrated orally with olaparib as once daily dose via gavage for 14 days by Western blot analysis; format: functional, cell-based; conditions: route po, time 14.0 day
# Chain of Histone deacetylase 1 (Q13547 whole entry): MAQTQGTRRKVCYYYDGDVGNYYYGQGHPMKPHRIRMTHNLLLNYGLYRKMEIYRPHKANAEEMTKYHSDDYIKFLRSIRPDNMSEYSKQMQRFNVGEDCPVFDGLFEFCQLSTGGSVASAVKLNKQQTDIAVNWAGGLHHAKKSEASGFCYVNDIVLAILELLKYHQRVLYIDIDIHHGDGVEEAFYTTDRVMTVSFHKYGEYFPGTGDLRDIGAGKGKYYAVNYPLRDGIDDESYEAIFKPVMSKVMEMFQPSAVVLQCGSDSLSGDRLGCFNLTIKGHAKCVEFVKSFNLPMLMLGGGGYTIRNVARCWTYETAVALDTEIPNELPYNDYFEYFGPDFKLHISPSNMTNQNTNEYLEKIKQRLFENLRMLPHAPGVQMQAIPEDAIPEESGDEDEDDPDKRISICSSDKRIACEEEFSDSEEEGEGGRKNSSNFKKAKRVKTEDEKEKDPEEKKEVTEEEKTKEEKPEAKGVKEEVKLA
smiles,measurement,setting,value
CCCNNC(=O)c1ccc(Cn2c3ccccc3c3c(-c4ccccn4)nc4ccccc4c32)cc1,pIC50,Histone deacetylase 1,5.17
same,pIC50,Histone deacetylase 3,7.38
same,pIC50,Histone deacetylase 4,< 5.00
same,pIC50,Histone deacetylase 11,5.05
same,pIC50,HCT-116,5.17
same,pIC50,4T1 [1],5.08
same,Activity,B16-F10 [2],Active
same,inhibition,[3],Active
same,Emax,[4],85%
same,inhibition,[5],Active
same,Activity,4T1 [6],Active
same,Activity,B16-F10 [7],Active
same,Activity,4T1 [8],Active
same,MRT inf,[9],0.741 h
same,concentration at 12 h,[10],0.475 ng/mL
same,Vd,[11],2.17 L/kg
same,Cmax,[12],1040 ng/mL
same,MRT last at 12 h,[13],4.43 h
same,VRT(t),[14],7.932 hr2
same,inhibition in vivo at 50 mg/kg,B16-F10 [15],80%
same,Activity,Mus musculus [16],22%
same,Activity,Mus musculus [17],32%
same,Activity,Mus musculus [18],inactive
same,Activity,Mus musculus [19],Active
same,Activity,Mus musculus [20],Active
same,TGI,4T1 [21],41%
same,Activity,4T1 [22],Active
